Measurements reported in US10208030B2, “GPR119 agonist compounds” (Mankind Pharma Ltd., priority 2016, dated 2019).

Biological target: T1, hGPR119 (Homo sapiens, UniProt Q8TDV5)
T1 construct: expressed in transfected cells; host or cells: CHO cells (CHO-hGPR119)
T1 sequence (Q8TDV5 1-335): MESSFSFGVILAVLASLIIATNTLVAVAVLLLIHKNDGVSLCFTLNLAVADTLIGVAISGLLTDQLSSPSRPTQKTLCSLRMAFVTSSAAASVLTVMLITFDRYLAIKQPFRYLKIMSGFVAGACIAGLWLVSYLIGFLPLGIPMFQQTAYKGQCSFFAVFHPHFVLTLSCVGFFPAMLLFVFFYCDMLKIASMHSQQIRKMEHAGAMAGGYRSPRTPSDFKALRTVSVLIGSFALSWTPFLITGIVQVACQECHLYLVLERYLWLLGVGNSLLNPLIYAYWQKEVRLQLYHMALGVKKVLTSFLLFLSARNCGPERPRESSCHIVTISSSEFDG
Assay: In vitro cyclic AMP assay (Cisbio HTRF) in CHO-hGPR119 cells
Type: cell-based
Conditions: 1 h, cAMP, 1 μM, 60 min, read-out: Induction (% induction at 1 μM)
Protocol: cAMP measurements were done using Cisbio dynamic 2 HTRF kit according to the manufacturer's protocol. Briefly, CHO-hGPR119 cells were plated at a cell density of 5000 cells/well/5 μl into a white small volume 384 well plate. The final concentrations of IBMX and DMSO used were 1 mM and 0.5% respectively. Cells were treated with various concentrations of the test compound for 60 min at room temperature. Cells were lysed by buffer containing Anti-cAMP antibody and d2-cAMP reagents and incubated for 1 hour at room temperature. HTRF was measured at 337 nm excitation and emission wavelengths of 665 nm and 620 nm on a microplate reader (Flurostar, BMG Labtech). Graphpad prism software was utilized for EC50 determinations.

activation at 1 µM	SMILES
75%	CC(C)c1noc(N2CCC(C(C)Oc3nn4cc(-c5ccncc5F)nc4s3)CC2)n1 (stereo in doubt) [Compound 1064, (S)-5-(4-(1-((6-(3-fluoropyridin-4-yl)imidazo[2,1-b][1,3,4]thiadiazol-2-yl)oxy)ethyl)piperidin-1-yl)-3-isopropyl-1,2,4-oxadiazole]
74%	CCc1cnc(N2CCC(C(C)Oc3nn4cc(-c5ccncc5)nc4s3)CC2)nc1 (stereo in doubt) [Compound 1080, 2-((S)-1-(1-(5-ethylpyrimidin-2-yl)piperidin-4-yl)ethoxy)-6-(pyridin-4-yl)imidazo[2,1-b][1,3,4]thiadiazole]
72%	CC(C)c1noc(N2CCC(C(C)Oc3nn4cc(-c5ccc(C(F)(F)F)nc5)nc4s3)CC2)n1 (stereo in doubt) [Compound 1084, 2-((S)-1-(1-(3-isopropyl-1,2,4-oxadiazol-5-yl)piperidin-4-yl)ethoxy)-6-(6-(trifluoromethyl)pyridin-3-yl)imidazo[2,1-b][1,3,4]thiadiazole]
84%	CCc1cnc(N2CCC(C(C)Oc3nn4cc(-c5ccc(S(C)(=O)=O)nc5F)nc4s3)CC2)nc1 (stereo in doubt) [Compound 1102, 2-((S)-1-(1-(5-ethylpyrimidin-2-yl)piperidin-4-yl)ethoxy)-6-(2-fluoro-6-(methylsulfonyl)pyridin-3-yl)imidazo[2,1-b][1,3,4]thiadiazole]
3%	CC(C)c1noc(C2CCN(c3nsnc3Oc3ccc(-n4cnnn4)cc3)CC2)n1 [Compound 1003, 5-(1-(4-(4-(1H-tetrazol-1-yl)phenoxy)-1,2,5-thiadiazol-3-yl)piperidin-4-yl)-3-isopropyl-1,2,4-oxadiazole]
6%	CCc1cnc(N2CCC(c3nsnc3-c3ccc(S(C)(=O)=O)cc3)CC2)nc1 [Compound 1004, 3-(1-(5-ethylpyrimidin-2-yl)piperidin-4-yl)-4-(4-(methylsulfonyl)phenyl)-1,2,5-thiadiazole]
2%	CCc1cnc(N2CC=C(c3nsnc3Oc3ccc(-n4cnnn4)cc3)CC2)nc1 [Compound 1005, 3-(4-(1H-tetrazol-1-yl)phenoxy)-4-(1-(5-ethylpyrimidin-2-yl)-1,2,3,6-tetrahydropyridin-4-yl)-1,2,5-thiadiazole]
9%	CC(C)c1noc(C2CCN(c3nsnc3COc3ccc(S(C)(=O)=O)cc3F)CC2)n1 [Compound 1006, 5-(1-(4-((2-fluoro-4-(methylsulfonyl)phenoxy)methyl)-1,2,5-thiadiazol-3-yl)piperidin-4-yl)-3-isopropyl-1,2,4-oxadiazole]
-8%	CC(C)c1noc(C2CCN(c3nsnc3-c3ccc(S(C)(=O)=O)cc3)CC2)n1 [Compound 1007, 3-isopropyl-5-(1-(4-(4-(methylsulfonyl)phenyl)-1,2,5-thiadiazol-3-yl)piperidin-4-yl)-1,2,4-oxadiazole]
2%	CC(C)OC(=O)N1CCN(c2nsnc2Oc2ccc(-n3cnnn3)cc2)CC1 [Compound 1010, isopropyl 4-(4-(4-(1H-tetrazol-1-yl)phenoxy)-1,2,5-thiadiazol-3-yl)piperazine-1-carboxylate]
2%	CC(C)c1noc(N2CCC(COc3nsnc3OCC3CCN(c4nc(C(C)C)no4)CC3)CC2)n1 [Compound 1011, 3,4-bis((1-(3-isopropyl-1,2,4-oxadiazol-5-yl)piperidin-4-yl)methoxy)-1,2,5-thiadiazole]
22%	CC(C)c1noc(C2CCN(c3nsnc3C(=O)Nc3ccc(S(C)(=O)=O)cc3F)CC2)n1 [Compound 1012, N-(2-fluoro-4-(methylsulfonyl)phenyl)-4-(4-(3-isopropyl-1,2,4-oxadiazol-5-yl)piperidin-1-yl)-1,2,5-thiadiazole-3-carboxamide]

Same assay, conditions: cAMP, class symbols, legend not given

EC50	SMILES
A++	CC(C)c1noc(N2CCC(C(C)Oc3nn4cc(-c5ccncc5F)nc4s3)CC2)n1 (stereo in doubt) [Compound 1064, (S)-5-(4-(1-((6-(3-fluoropyridin-4-yl)imidazo[2,1-b][1,3,4]thiadiazol-2-yl)oxy)ethyl)piperidin-1-yl)-3-isopropyl-1,2,4-oxadiazole]
A+	CCc1cnc(N2CCC(C(C)Oc3nn4cc(-c5ccc(S(C)(=O)=O)nc5F)nc4s3)CC2)nc1 (stereo in doubt) [Compound 1102, 2-((S)-1-(1-(5-ethylpyrimidin-2-yl)piperidin-4-yl)ethoxy)-6-(2-fluoro-6-(methylsulfonyl)pyridin-3-yl)imidazo[2,1-b][1,3,4]thiadiazole]
